{
  "source": "patent US20100303933A1",
  "about": "“IMMUNOPOTENTIATING COMPOSITION FROM LABISIA PUMILA EXTRACT” (HOLISTA BIOTECH SDN. BHD., priority 2007, published 2010)",
  "key": {"[1]": {"system": "reticuloendothelial system", "assay": "Phagocytic response in vivo: clearance of carbon particles from circulation", "set-up": "species or system mice", "settings": "dose 2.5 mg/ml p.o. (Levamisole)", "method": "The phagocytic function of the reticuloendothelial system was assayed in groups of six mice each by injecting i.v. 160 mg/kg of 1.6% suspension of gelatin stabilized carbon particles of […] size (Atal et al., 1986). Blood samples were collected before and at intervals varying between 2 to 90 min after carbon injection. An aliquot (10 μL) of blood samples were lysed with 2 mL of 0.1% acetic acid and the transparency determined spectrophotometrically at 675 nm (Uvikon 810, spectrophotometer, Kontron Ltd, Switzerland) as per the method of Hudson and Hay (1980)."}, "skin allograft": {"system": "skin allograft", "assay": "Skin allograft rejection (CMI response)", "type": "in vivo, mice", "settings": "2.5 mg/kg p.o. (Levamisole)", "method": "Skin allograft rejection: Mice were employed for the skin transplantation that were administered LPPM/A003 daily for 7 days and the graft rejection time (GRT) was recorded by daily observation of the epithelial survival."}, "[2]": {"system": "peritoneal murine macrophages", "assay": "Phagocytic response in vitro: heat killed Candida albicans ingested by peritoneal macrophages", "type": "cell-based", "settings": "10 μg/ml (Levamisole)", "quoted_text": "Peritoneal macrophage cells (2×10^6) were allowed to adhere to glass cover slip for 90 minutes at 37° C. in 5% CO2 incubator (95% humidity). Simultaneously heat killed Candida albicans cells (100° C., 60 minutes) were opsonized for 90 minutes with 20% autologous serum to promote phagocytosis. The samples were washed with PBS and immediately evaluated microscopically. The percentage and average number of Candida albicans cells (heat killed) ingested by peritoneal murine macrophages was calculated."}},
  "note": "Marks after values point to notes of the source that are not given here.",
  "data": [
    {"smiles": "c1ccc([C@H]2CN3CCSC3=N2)cc1", "note": "[Levamisole]", "values": [
      {"measurement": "% Phagocytosis Ex -In vivo study Mean ± S.E.", "setting": "[1]", "result": "1.78 ± 0.11", "unit": "%"},
      {"measurement": "Rejection Time Days Mean ± S.E.", "setting": "skin allograft", "result": "8.50 ± 0.22", "unit": "days"},
      {"measurement": "Graft Rejection (Percent)", "setting": "skin allograft; ↑ hastened", "result": "34.61^b ↑ Percent"},
      {"measurement": "% Phagocytosis In vitro study Mean ± S.E.", "setting": "[2]", "result": "43.11 ± 2.92", "unit": "%"}
    ]}
  ]
}
